In test [1] the test system is wild-type MG1655 K12 E. coli. In kind it is cell-based. To be noted: d4T 6 μg/mL.
Test [2] relates to most gram-negative bacteria. To be noted: Elwell et al. 1987; cited from earlier work.
Test [3] deals with triclosan-resistant mutants. Put plainly: MIC of isolated triclosan-resistant colonies. In kind it is cell-based, E. coli. Particulars: Escherichia coli. As to the method:
(§1) Characterization of mutants. The MICs were determined of over one hundred isolated antibiotic-resistant colonies. All of the ciprofloxacin-resistant mutants had MICs of 480 ng/mL (FIG. 2B). The ciprofloxacin resistance mutants contained a CG to TA transition translating into a Ser 83→Leu mutation in DNA gyrase. This mutation is known to provide the greatest ciprofloxacin resistance obtainable in a single step (Drlica K, Zhao X (1997) Microbiol Mol Biol Rev 61: 377-392).
The vast majority of isolated triclosan-resistant mutants (˜85%) had MICs of 16 μg/mL. These colonies had acquired a GC to TA transversion resulting in a Gly 93→Val mutation in FabI, the known protein target of triclosan (FIG. 2B). This mutation is known to produce the greatest triclosan resistance possible via a single step (McMurry L, Oethinger M, Levy S (1998) Nature 394: 531-532). […] It is, therefore, reasonable that the frequency of UV-induced triclosan-resistant mutants is considerably lower (˜8-fold) than the frequency of UV-induced ciprofloxacin-resistant mutants. The remaining triclosan-resistant mutants (˜15%) had MICs between 2-4 μg/mL. These included three different mutations of Phe 203 in FabI: a TA to CG transition giving serine, a TA to GC transversion giving valine, and a TA to GC transversion giving cystine (FIG. 2B). […]

Test [4] deals with ciprofloxacin-resistant mutants. Put plainly: MIC of isolated ciprofloxacin-resistant colonies. Format: cell-based, E. coli. Particulars: Escherichia coli. As to the method: as §1
For test [5], the system named is wild-type and the isolated mutant cells. Put plainly: MIC of AZT against wild-type and isolated mutant cells. In kind it is cell-based, E. coli. The method, then:
as §1

The test system of test [6] is CC 102. Nature of the test: MIC of AZT against CC102. In kind it is cell-based, E. coli. To be noted: Escherichia coli, read-out: AZT MIC. From the text:
One strain, CC102, required a GC to AT transition.

On to `Cc1cn([C@H]2C=C[C@@H](CO)O2)c(=O)[nH]c1=O` [d4T, 2′,3′-didehydro-3′-deoxythymidine], for which, in test [1], the “UV-induced generation of mutations that confer resistance to ciprofloxacin” value is given as “inhibits”. In addition, in test [2], the antibacterial activity result is recorded as “antibacterial activity”.
In the case of `Oc1cc(Cl)ccc1Oc1ccc(Cl)cc1Cl` [triclosan], the MIC (in general, the lowest concentration found to suppress growth) was 2 to 4 µg/mL in test [3] (remaining (~15%) triclosan-resistant mutants (FabI Phe 203 mutations)) and 16 µg/mL in test [3] (vast majority (~85%) of triclosan-resistant mutants (FabI Gly 93→Val)).
With `O=C(O)c1cn(C2CC2)c2cc(N3CCNCC3)c(F)cc2c1=O` [ciprofloxacin], the minimum inhibitory concentration (MIC) in test [4] amounted to 0.48 µg/mL.
In the case of `Cc1cn([C@H]2C[C@H](N=[N+]=[N-])[C@@H](CO)O2)c(=O)[nH]c1=O` [AZT, 3′-azido-2′-deoxythymidine], the minimum inhibitory concentration (MIC) in test [5] (both the wild-type and the isolated ciprofloxacin-/triclosan-resistant mutant cells) is 0.01 µg/mL; in test [6], 0.02 µg/mL. Also, in test [5] (several rifampicin-resistant mutants), the “sensitivity to AZT” value is “varying sensitivities”. Moreover, the antibacterial activity entry in test [2] is on record as “antibacterial activity”.

The values above are taken from patent US20100130439A1, “GENOMIC MUTATION INHIBITORS THAT INHIBIT Y FAMILY DNA POLYMERASES” (priority 2007, published 2010).
